Measured values taken from patent US20050267076A1 (priority 2004, published 2005).
Read-outs that look alike come from different tables or passages of the source.

How the values were obtained:
Long-Evans rats = assay: 8 hour retention test on a twelve-arm radial maze (spatial memory); format: in vivo, rat; conditions: vs vehicle, t(11)=2.69, p<0.02
Experimental: 12-arm maze test: Behavioral testing was conducted by an experimenter who was blind to drug treatment. 12 Long-Evans rats trained to use a win-shift strategy were given an information trial. During the information trial, 5 of the 12 arms of the 12 arm maze were blocked so that rats were not able to consume food from those blocked arms but could obtain food from each of the 7 open arms. After this session rats were moved to their home cage and placed back in the animal holding room. […] A retroactive memory error is made when the rat enters an arm that was […] on the information trial.
12 rats (divided into three groups) were used in the experiment. Sixty minutes prior to the information session, the rats were injected intraperitoneally (IP) with 150 mg/kg ABPA (Saegis Pharmaceuticals, Inc.), 3 mg/kg donepezil, or combination of 150 mg/kg ABPA and 3 mg/kg donepezil. Physiological saline (NaCl) was used as vehicle. Treatment order was counterbalanced among three groups such that each group (N=4) received a different order of vehicle, ABPA, donepezil, and ABPA+donepezil injection across days, for a total of three tests for each treatment in all subjects.

rats = format: in vivo, rat; conditions: for performance in the object recognition task: vs saline; for Recognition Score: saline 61%
Experimental: The experimental protocol is as follows:
[…]. Both drugs were administered by intraperitoneal (IP) injection. […].

humans = conditions: cited from earlier work
[1] = cited from earlier work
[2] = in vivo; cited from earlier work

For COc1cc2c(cc1OC)C(=O)C(CC1CCN(Cc3ccccc3)CC1)C2 (racemic) [donepezil, (±)-2,3-dihydro-5,6-dimethoxy-2-[[1-(phenylmethyl)-4-piperidinyl]methyl]-1H-inden-1-one, reference compound], the “retention test performance on the 12-arm maze” value (Long-Evans rats; 3 mg/kg donepezil IP 60 min prior to information session) was “improved performance”, the “performance in the object recognition task” value (rats; donepezil 1.7 mg/kg IP 30 min prior to information trial) was “significantly improved performance” and the “Recognition Score” value (rats; donepezil alone at 0.56 mg/kg) was 62%. The “Recognition Score” value (rats; donepezil alone at 1 mg/kg) was 63%, the “cognitive effect in Alzheimer's Disease patients” value (humans; Barner and Gray, 1998, Rogers and Friedhoff) was “slight cognitive improvements” and the “side effect profile in humans” value (humans; human, in vivo) was “cholinergic side effect profile”.
In the case of CCCCP(=O)(O)CCCN [ABPA, 3-aminopropyl-(n-butyl)-phosphinic acid], the water solubility [1] is listed as “highly water-soluble”, the “blood brain barrier crossing” value [2] is listed as “readily crosses the blood brain barrier” and the “retention test performance on the 12-arm maze” value (Long-Evans rats; 150 mg/kg ABPA IP 60 min prior to information session) is listed as “improved performance”. The “performance in the object recognition task” value (rats; ABPA 3 and 30 mg/kg IP 30 min prior to information trial, delay of 6 hours) was “no beneficial effect”, the “performance in the object recognition task” value (rats; ABPA 10, 100, 170, and 300 mg/kg IP 30 min prior to information trial, delay of 6 hours) was “significantly enhanced performance” and the “Recognition Score” value (rats; ABPA alone at 3 mg/kg) was 61%. The “Recognition Score” value (rats; ABPA alone at 10 mg/kg) was 70%.
